Data on six molecules can be found in patent publication US5624923A, “Tricyclic diazepine vasopressin antagonists and oxytocin antagonists” (priority 1995, dated 1997).

Test [1] concerns the target T1, Rat Kidney Medullary V2 Receptors (Rattus norvegicus, UniProt Q00788).
T1 construct: Medullary tissues from rat kidneys are dissected out; from tissue; host or cells: rat kidney medulla membranes
Nature of the test: Binding Assay to Rat Kidney Medullary V2 Receptors. The note with it: for IC50: rat kidney medulla membranes, read-out: V2 IC50. The method in brief: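 IC50 derived from competition curves; bound tritium counted by liquid scintillation after filtration. Rat medullary kidney membranes (Tris-HCl pH 7.4, BSA, PMSF) were incubated 120 min to equilibrium with radioligand and test compound (added in 50% DMSO). Nonspecific binding: 1.0 μM unlabeled ligand.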

The test system of a further test is Vasopressin V2. The test is described as follows: Vasopressin V2 Antagonist Activity in Conscious Hydrated Rats. The note with it: AVP 0.4 μg/kg i.p. Type of test: in vivo, rat. In outline: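 Four-hour urine output, osmolality and electrolytes (Na+, K+, Cl−) recorded in water-loaded rats (30 mL/kg deionized water orally) given AVP i.p. at 0.4 μg/kg. Test compounds were given orally at 0.1–100 mg/kg 1 h before AVP; 2–4 rats per compound.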

The target of the next test is T2, Rat Hepatic V1 Receptors (Rattus norvegicus, UniProt P30560).
T2 construct: Rat liver plasma membranes expressing the vasopressin V1 receptor subtypes; from tissue; host or cells: rat liver plasma membranes
T2 sequence (P30560 whole entry): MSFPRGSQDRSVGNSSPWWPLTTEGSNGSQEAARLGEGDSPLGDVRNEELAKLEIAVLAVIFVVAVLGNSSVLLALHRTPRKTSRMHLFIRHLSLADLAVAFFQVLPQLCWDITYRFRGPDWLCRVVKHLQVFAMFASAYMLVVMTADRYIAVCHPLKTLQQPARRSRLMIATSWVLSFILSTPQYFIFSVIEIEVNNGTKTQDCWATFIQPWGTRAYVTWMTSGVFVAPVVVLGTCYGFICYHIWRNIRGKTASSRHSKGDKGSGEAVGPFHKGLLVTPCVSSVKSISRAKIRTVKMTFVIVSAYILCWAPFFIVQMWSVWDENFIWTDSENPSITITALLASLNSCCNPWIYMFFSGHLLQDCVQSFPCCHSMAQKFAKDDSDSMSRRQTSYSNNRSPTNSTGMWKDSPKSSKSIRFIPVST
The test is described as follows: Binding Assay to Rat Hepatic V1 Receptors. The conditions noted are these: for IC50: rat liver membranes, read-out: V1 IC50.

A further test has as its system Vasopressin V1. Nature of the test: Vasopressin V1 Antagonist Activity in Conscious Rats (vasopressin vasopressor response). More on the design: Average Change: unit not given here. Type of test: in vivo, rat. The note with it: for % Inhibition / Average Change: SHR. In outline:
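Conscious rats are restrained supine, and under local 2% procaine a PE 10/20 cannula is passed through the ventral caudal tail artery into the lower abdominal aorta. The caudal vein is cannulated for intravenous dosing. Blood pressure is recorded with a Statham P23Db transducer, and vasopressin injections are repeated after compound dosing. Percent antagonism is calculated against the pre-drug vasopressor response taken as 100%.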

Where [2] appears, read: 10 mg/kg i.v., VAS 0.01 i.u./kg, 30 min.
Where [3] appears, read: 10 mg/kg i.v., VAS 0.02 i.u./kg, 30 min.
Setting [4] is: 20 mg/kg i.v., VAS 0.01 i.u./kg, 60 min.
Setting [5] is: 20 mg/kg i.v., VAS 0.01 i.u./kg, 90 min.
[6] abbreviates: 20 mg/kg i.v., VAS 0.01 i.u./kg, 120 min.
The mark [7] stands for this setting: 20 mg/kg i.v., VAS 0.01 i.u./kg, 180 min.
The mark [8] stands for this setting: 20 mg/kg i.v., VAS 0.01 i.u./kg, 240 min.
Where [9] appears, read: 20 mg/kg i.v., VAS 0.01 i.u./kg, 300 min.
[10] abbreviates: 20 mg/kg i.v., VAS 0.02 i.u./kg, 60 min.
Setting [11] is: 20 mg/kg i.v., VAS 0.02 i.u./kg, 90 min.
[12] abbreviates: 20 mg/kg i.v., VAS 0.02 i.u./kg, 120 min.
Setting [13] is: 20 mg/kg i.v., VAS 0.02 i.u./kg, 180 min.
Where [14] appears, read: 20 mg/kg i.v., VAS 0.02 i.u./kg, 240 min.
[15] abbreviates: 20 mg/kg i.v., VAS 0.02 i.u./kg, 300 min.
Where [16] appears, read: 10 mg/kg i.v., VAS 0.01 i.u./kg, 60 min.
The mark [17] stands for this setting: 10 mg/kg i.v., VAS 0.01 i.u./kg, 90 min.
Setting [18] is: 10 mg/kg i.v., VAS 0.01 i.u./kg, 120 min.
[19] abbreviates: 10 mg/kg i.v., VAS 0.01 i.u./kg, 180 min.
Where [20] appears, read: 10 mg/kg i.v., VAS 0.01 i.u./kg, 240 min.
Where [21] appears, read: 10 mg/kg i.v., VAS 0.01 i.u./kg, 300 min.
[22] abbreviates: 10 mg/kg i.v., VAS 0.02 i.u./kg, 60 min.
[23] abbreviates: 10 mg/kg i.v., VAS 0.02 i.u./kg, 90 min.
Setting [24] is: 10 mg/kg i.v., VAS 0.02 i.u./kg, 120 min.
Setting [25] is: 10 mg/kg i.v., VAS 0.02 i.u./kg, 180 min.
Where [26] appears, read: 10 mg/kg i.v., VAS 0.02 i.u./kg, 240 min.
Setting [27] is: 10 mg/kg i.v., VAS 0.02 i.u./kg, 300 min.

T1 sequence (Q00788 whole entry): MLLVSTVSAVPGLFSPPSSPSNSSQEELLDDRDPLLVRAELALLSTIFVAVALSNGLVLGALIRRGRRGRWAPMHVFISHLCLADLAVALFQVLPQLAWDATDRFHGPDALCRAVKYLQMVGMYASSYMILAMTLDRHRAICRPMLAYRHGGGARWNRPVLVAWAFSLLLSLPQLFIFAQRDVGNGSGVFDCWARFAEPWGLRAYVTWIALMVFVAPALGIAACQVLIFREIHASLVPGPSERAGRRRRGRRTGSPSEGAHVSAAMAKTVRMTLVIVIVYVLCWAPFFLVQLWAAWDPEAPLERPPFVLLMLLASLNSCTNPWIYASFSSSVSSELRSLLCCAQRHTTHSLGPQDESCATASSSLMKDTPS

`O=C(Nc1ccc(C(=O)N2Cc3cccn3Cc3ccccc32)cc1)c1sc2ccccc2c1Cl` [Example 82, N-[4-(5H-Pyrrolo[2,1-c][1,4]benzodiazepin-10(11H)-ylcarbonyl)phenyl]-3-chlorobenzo[b]thiophene-2-carboxamide]: the inhibition at 10 µM was found to be 71% in test [1] (10 μM, rat) and 23% at Rat Hepatic V1 Receptors (2 h, 10 μM, rat). In the test with Vasopressin V2 (20 mg/kg orally), the Osmolality is 1300 mOsm/kg. The “Urine Volume” value in the test with Vasopressin V2 (20 mg/kg orally) stood at 4.3 ml/4 hrs. Further, the “% Inhibition” value in the test with Vasopressin V1 (setting [2]) is given as 24%; in the test with Vasopressin V1 (setting [3]) it was -5%; in the test with Vasopressin V1 (setting [4]) it was 67%; in the test with Vasopressin V1 (setting [5]), 51%; with Vasopressin V1 (setting [6]), 65%; in the test on Vasopressin V1 (setting [7]), 61%. Also, the “% Inhibition” value was determined as 39% in the test on Vasopressin V1 (setting [8]); 33% in the test on Vasopressin V1 (setting [9]); 28% in the test with Vasopressin V1 (setting [10]); 53% in the test on Vasopressin V1 (setting [11]); 25% with Vasopressin V1 (setting [12]); 16% in the test with Vasopressin V1 (setting [13]). The “% Inhibition” value with Vasopressin V1 (setting [14]) is 18%; in the test on Vasopressin V1 (setting [15]) it was -3%. For the same molecule, the “Average Change” value came out at 36 with Vasopressin V1 (setting [2]); 54 in the test with Vasopressin V1 (setting [3]); 15.5 with Vasopressin V1 (setting [4]); 23.5 in the test on Vasopressin V1 (setting [5]); 16.5 in the test on Vasopressin V1 (setting [6]); 18.5 in the test on Vasopressin V1 (setting [7]). In addition, the “Average Change” value in the test with Vasopressin V1 (setting [8]) was 29; in the test on Vasopressin V1 (setting [9]) it was 32; in the test with Vasopressin V1 (setting [10]), 37; in the test on Vasopressin V1 (setting [11]) it was 24; with Vasopressin V1 (setting [12]), 38.5; in the test on Vasopressin V1 (setting [13]), 43.5. The “Average Change” value with Vasopressin V1 (setting [14]) is on record as 42; with Vasopressin V1 (setting [15]), 53.
Consider `Cc1cc(C(=O)N2Cc3cccn3Cc3ccccc32)ccc1NC(=O)c1ccc(Cl)cc1Cl` [Example 99, N-[4-(5H-pyrrolo[2,1-c][1,4]-benzodiazepin-10(11H)-yl-carbonyl)-2-methylphenyl]-2,4-dichlorobenzamide], for which the IC50 in test [1] came to 10 nM; at Rat Hepatic V1 Receptors, 27 nM. This molecule also came in with an Osmolality in the test on Vasopressin V2 (30 mg/kg orally) of 334 mOsm/kg. For the same molecule, in the test with Vasopressin V2 (30 mg/kg orally), the “Urine Volume” value is on record as 15.2 ml/4 hrs. Besides, the “Max. % Inhibition” value in the test on Vasopressin V1 (10 mg/kg i.v.) is on record as 76%. Moreover, the “Time (of max. % inhibition)” value in the test with Vasopressin V1 (10 mg/kg i.v.) is recorded as 120 min. Moreover, the “% Inhibition” value in the test on Vasopressin V1 (setting [2]) is 74%; in the test with Vasopressin V1 (setting [16]) it was 29%; in the test with Vasopressin V1 (setting [17]), 47%; in the test on Vasopressin V1 (setting [18]), 76%; in the test on Vasopressin V1 (setting [19]), 68%; in the test on Vasopressin V1 (setting [20]), 50%. Besides, the “% Inhibition” value in the test with Vasopressin V1 (setting [21]) is reported as 44%; in the test with Vasopressin V1 (setting [3]), 64%; in the test with Vasopressin V1 (setting [22]), 72%; in the test with Vasopressin V1 (setting [23]) it was 26%; in the test on Vasopressin V1 (setting [24]), 53%; in the test on Vasopressin V1 (setting [25]) it was 44%. In addition, the “% Inhibition” value in the test with Vasopressin V1 (setting [26]) was found to be 40%; in the test with Vasopressin V1 (setting [27]), 38%. The “Average Change” value in the test with Vasopressin V1 (setting [2]) came to 9.5; with Vasopressin V1 (setting [16]), 25.5; in the test with Vasopressin V1 (setting [17]), 19; with Vasopressin V1 (setting [18]), 8.5; in the test on Vasopressin V1 (setting [19]), 11.5; with Vasopressin V1 (setting [20]), 18. Further, the “Average Change” value in the test with Vasopressin V1 (setting [21]) came out at 20; in the test with Vasopressin V1 (setting [3]), 13; in the test on Vasopressin V1 (setting [22]) it was 10; in the test with Vasopressin V1 (setting [23]) it was 26.5; in the test on Vasopressin V1 (setting [24]), 17; in the test on Vasopressin V1 (setting [25]), 20. Besides, the “Average Change” value stood at 21.5 in the test with Vasopressin V1 (setting [26]) and 22.5 with Vasopressin V1 (setting [27]).
For the molecule `O=C(Nc1ccc(C(=O)N2Cc3cccn3Cc3ccccc32)cc1)C1CCCCC1` [Example 358, N-[4-(5H-Pyrrolo[2,1-c][1,4]benzodiazepin-10(11)ylcarbonyl)phenyl]-cyclohexanecarboxamide], the half-maximal inhibitory concentration (IC50) in test [1] is 16 nM; at Rat Hepatic V1 Receptors it was 11 nM. The molecule also had an Osmolality with Vasopressin V2 (30 mg/kg orally) of 875 mOsm/kg. For the same molecule, the “Urine Volume” value in the test with Vasopressin V2 (30 mg/kg orally) turned out to be 5.5 ml/4 hrs. Moreover, the “% Inhibition” value in the test with Vasopressin V1 (setting [2]) turned out to be 67%; in the test with Vasopressin V1 (setting [16]), 64%; with Vasopressin V1 (setting [17]), 52%; in the test with Vasopressin V1 (setting [18]) it was 78%; in the test with Vasopressin V1 (setting [19]), 52%; with Vasopressin V1 (setting [20]), 67%. For the same molecule, the “% Inhibition” value with Vasopressin V1 (setting [21]) was determined as 48%; with Vasopressin V1 (setting [3]), 39%; with Vasopressin V1 (setting [22]), 75%; in the test with Vasopressin V1 (setting [23]), 72%; in the test on Vasopressin V1 (setting [24]), 65%; with Vasopressin V1 (setting [25]), 63%. The results for the “% Inhibition” value with Vasopressin V1 (setting [26]) and in the test on Vasopressin V1 (setting [27]) were 61% and 59%, respectively. In addition, the “Average Change” value in the test with Vasopressin V1 (setting [2]) was determined as 12; in the test with Vasopressin V1 (setting [16]), 13; with Vasopressin V1 (setting [17]), 17.5; in the test on Vasopressin V1 (setting [18]), 8; in the test with Vasopressin V1 (setting [19]) it was 17.5; in the test on Vasopressin V1 (setting [20]), 12. Also, the “Average Change” value in the test on Vasopressin V1 (setting [21]) is 19; with Vasopressin V1 (setting [3]) it was 24; with Vasopressin V1 (setting [22]), 10; with Vasopressin V1 (setting [23]), 11; in the test with Vasopressin V1 (setting [24]), 14; in the test on Vasopressin V1 (setting [25]) it was 14.5. Moreover, the “Average Change” value in the test with Vasopressin V1 (setting [26]) is 15.5; in the test with Vasopressin V1 (setting [27]), 16.
As for `Cc1c(F)cccc1C(=O)Nc1ccc(C(=O)N2Cc3cccn3Cc3ccccc32)cc1` [Example 466, N-[4-(5H-pyrrolo[2,1-c][1,4]benzodiazepin-10(11H)-ylcarbonyl)phenyl]-3-fluoro-2-methylbenzamide], the half-maximal inhibitory concentration (IC50) in test [1] came out at 4 nM. In the test with Vasopressin V2 (10 mg/kg orally), the Osmolality is listed as 522 mOsm/kg and the “Urine Volume” value was 14.1 ml/4 hrs. Moreover, the concentration for half-maximal inhibition (IC50) on Rat Hepatic V1 Receptors turned out to be 26 nM. In the test with Vasopressin V1 (30 mg/kg i.v.), the “Max. % Inhibition” value came out at 94% and the “Time (of max. % inhibition)” value came to 94 min.
In the case of `Cc1cccc(C(=O)Nc2ccc(C(=O)N3Cc4cccn4Cc4ccccc43)cc2)c1C` [Example 467, N-[4-(5H-pyrrolo[2,1-c][1,4]benzodiazepin-10(11H)-ylcarbonyl)phenyl]-2,3-dimethylbenzamide], the IC50 in test [1] stood at 5 nM. In the test with Vasopressin V2 (10 mg/kg orally), the Osmolality is reported as 365 mOsm/kg and the “Urine Volume” value came to 18 ml/4 hrs. For the same molecule, on Rat Hepatic V1 Receptors, the IC50 came out at 31 nM. In the test on Vasopressin V1 (10 mg/kg i.v.), the “Max. % Inhibition” value came out at 65% and the “Time (of max. % inhibition)” value worked out at 120 min.
Turning to `Cc1ccccc1NC(=O)c1ccc(C(=O)N2Cc3cccn3Cc3ccccc32)cc1` [Example 484, N-(2-Methylphenyl)-4-(5H-pyrrolo[2,1-c][1,4]-benzodiazepin-10(11H)-ylcarbonyl)benzamide], the IC50 in test [1] was 25 nM. Also, in the test on Vasopressin V2 (10 mg/kg orally), the Osmolality worked out at 785 mOsm/kg and the “Urine Volume” value is on record as 8 ml/4 hrs. The IC50 on Rat Hepatic V1 Receptors amounted to 97 nM. Besides, in the test on Vasopressin V1 (10 mg/kg i.v.), the “Max. % Inhibition” value is recorded as 79% and the “Time (of max. % inhibition)” value came to 300 min. Further, in the test with Vasopressin V1 (30 mg/kg p.o.), the “Max. % Inhibition” value was 22% and the “Time (of max. % inhibition)” value was 180 min.
